Experimental data taken from PMC4428793, “MK571 inhibits phase-2 conjugation of flavonols by Caco-2/TC7 cells, but does not specifically inhibit their apical efflux^” (Biochemical Pharmacology, 2015).
Several values for one entry are separate records, joined by “and”; a condition that tells them apart may be missing. Equal entries are not always repeated.

Legend:
Caco-2/TC7 cells = test: Flavonol metabolism and transport experiments on Caco-2/TC7 transwell monolayers, effect of MK571; type: cell-based, human
Method: Cells were grown at 37 °C in a humidified incubator with 5% CO2 in Dulbecco Modified Eagle's Medium (DMEM) containing 1% non-essential amino acids, 1% L-glutamine, 100 IU/mL penicillin and 100 μg/mL streptomycin, 1 g/L glucose, and supplemented with 20% (v/v) heat inactivated fetal calf serum. Cells were passaged at 80% confluency, and seeded at 2–4 × 10^4 cells per cm^2 on 10 cm dishes (growing area 75 cm^2) or 12-well transwells (growing area of 1.1 cm^2). […] Toxicity of MK571 on Caco-2/TC7 cell monolayers was determined through comparison of pre- and post-loading TEER values of wells incubated with MK571.
Flavonol stocks (quercetin, kaempferol, galangin; 10 mM) were prepared in dimethylsulfoxide (DMSO) and stored at −20 °C. MK571 was dissolved in dimethyl sulfoxide (10 mM final concentration) and stored at −20 °C. Prior to the metabolism or transport experiments, cells were aspirated of media and washed three times with phosphate buffered saline (PBS). To foetal calf serum and phenol red-free DMEM was added ascorbic acid at a final concentration of 100 μM as well as MK571 at the desired concentration. For metabolism experiments, 10 mL of this media was added to the cells in 10 cm dishes. For transport experiments using transwells, 0.6 mL of this media was added to the apical compartment of the transwell and 1 mL was added to the basolateral compartment. Control wells received an equivalent dose of dimethyl sulfoxide as the treatment wells. Cells were incubated at 37 °C for 30 min, after which flavonols dissolved in dimethyl sulfoxide (kaempferol, galangin or quercetin) were added to the media of treatment wells at a final concentration of 40 or 100 μM, while control wells were treated with the dimethyl sulfoxide vehicle alone. Concentrations of quercetin were increased to 100 μM because instability of quercetin in media necessitated higher initial loading to maintain adequate cellular and media concentrations for uptake and metabolism of the flavonol. Control and treatment cells were incubated at 37 °C for the periods indicated in the results.
Following the required incubation period, media and cell fractions were harvested and analysed to identify and quantify flavonol metabolites using HPLC. Media was removed from the apical (0.5 mL) and basolateral (0.5 mL) compartments of transwells and added to 25 μL trifluoroacetic acid and 25 μL HPLC grade acetonitrile. Media from 10 cm dishes (1 mL) was removed and added to 50 μL trifluoroacetic acid and 25 μL HPLC grade acetonitrile. Cells were washed three times with cold (room temperature) phosphate buffered saline solution and scraped free of the dish surface. For transwells, 100 μL MilliQ water was added to the cells and the resulting cell suspension pipetted into 10 μL trifluoroacetic acid and 10 μL HPLC grade acetonitrile. For 10 cm dishes, the resulting cell suspension was pipetted into 25 μL trifluoroacetic acid and 25 μL HPLC grade acetonitrile. Samples were either analysed immediately or otherwise stored at −20 °C prior to HPLC analysis. Flavonols were stable during frozen storage and thawing (no significant losses up to 26 weeks).
Media samples were thawed where necessary and then mixed using a vortex mixer, centrifuged for 10 min at 14,000 × g using a micro centrifuge, and the supernatant removed and placed in an HPLC vial for analysis. Cell samples were vortex-mixed and then ultra-sonicated (sonic water bath) for 10 min, vortex mixed again and then centrifuged for 10 min at 14,000 × g using a micro-centrifuge, before removal of supernatant for HPLC analysis. Identification and quantification of individual flavonol metabolites was carried out using liquid chromatography–mass spectrometry and nuclear magnetic resonance analyses, as described previously. […]

[1] = test system: UDP-β-D-glucuronosyl transferase (UDP-GT) activity in the Caco2 cell-free extracts; test: Enzyme kinetics of kaempferol glucuronidation in Caco2 cell-free extracts (Km, Vmax, Ki); type: biochemical, human; conditions: substrate kaempferol 5–150 μM; estimated from reciprocal plots; read-out: Ki for inhibition of the synthesis of K-4′-O-GlcA
Method: Cells were grown until 21 days post confluent and washed and aspirated as described previously. The cells were then scraped into tubes and these tubes kept on ice at all times throughout the preparation procedure. Homogenisation buffer comprised of sodium phosphate buffer (50 mM adjusted to pH 6.5; 20 mL), two mini protease inhibitor cocktail tablets containing EDTA and perfabloc, dithiothreitol (30.8 mg), alamethacin (20 μL of a 22 μg/mL) solution from T. viride; and MgCl2 (3.5 mg). Cell-free homogenates were prepared by mixing cells with homogenisation buffer (50:50, vol/vol) and vortexing with glass beads in an eppendorf tube three times for 1 min over a 10 min period. […] The supernatant was removed and analysed via HPLC.
Estimates of initial rates (v) of formation of flavonol conjugates by UDP-β-D-glucuronosyl transferase (UDP-GT) activity in the Caco2 cell-free extracts were calculated for each concentration of S (S = kaempferol; [S] range 5–150 μM). […] The type of inhibition was determined by plotting 1/v versus 1/S for each of the inhibitor (MK571) concentrations tested and observing the location of the intersection of the lines, which also gave estimated values for Km and Vmax. […]

Caco-2 cells = conditions: cited from earlier work
[2] = test system: Caco-2 cell culture model; design: method as in PMID 12893842; conditions: 50 μM MK571; ref [39]; cited from earlier work
Bcrp1 = test system: Bcrp1; design: method as in PMID 15749994; conditions: Mrp2 deficient rats; ref [33]; cited from earlier work
[3] = 50 μM MK571, vs vehicle-only control, transwell monolayers
[4] = galangin 40 μM + 50 μM MK571 apical, 60 min
[5] = in the presence of MK571 (Table 1: 50 μM)
[6] = kaempferol 40 μM + 50 μM MK571 apical, 60 min
[7] = kaempferol 40 μM + 100 μM MK571 apical, 60 min
[8] = quercetin 100 μM + 50 μM MK571 apical, 60 min
[9] = 50 μM MK571, Caco-2 cells, ref Walle et al. [28]

CN(C)C(=O)CCSC(SCCC(=O)O)c1cccc(/C=C/c2ccc3ccc(Cl)cc3n2)c1 (stereo not shown) [MK571]
Increase in galangin aglycone concentration of the cellular extract (Caco-2/TC7 cells; 50 μM MK571): +180% | Increase in kaempferol aglycone concentration of the cellular extract (Caco-2/TC7 cells; 50 μM MK571): +182% | Increase in quercetin aglycone concentration of the cellular extract (Caco-2/TC7 cells; 50 μM MK571): +119% | Reduction in production of kaempferol sulphates (Caco-2/TC7 cells; 50 μM MK571): 50.8% | Reduction in production of total kaempferol glucuronides (Caco-2/TC7 cells; 50 μM MK571): 52.3% | Reduction in apical efflux of kaempferol conjugates (Caco-2/TC7 cells; 50 μM MK571, vs no MK571, transwell monolayers): 44% and 43.2% | Reduction in apical efflux of galangin conjugates (Caco-2/TC7 cells; [3]): 38% and 38.5% | Reduction in apical efflux of quercetin conjugates (Caco-2/TC7 cells; [3]): 37.1% | Increase in kaempferol aglycone concentration of the cellular extract (Caco-2/TC7 cells; 100 μM MK571): +229% | Reduction in production of kaempferol sulphates (Caco-2/TC7 cells; 100 μM MK571): 88.4% | Reduction in production of total kaempferol glucuronides (Caco-2/TC7 cells; 100 μM MK571): 67.2% | Apical galangin conjugates, change vs no MK571 (Caco-2/TC7 cells; [4]): −38.5% | Apical galangin conjugates, rate (Caco-2/TC7 cells; [4]): 1.789 nmol/h | Basolateral galangin conjugates, change vs no MK571 (Caco-2/TC7 cells; [4]): −43.6% | Basolateral galangin conjugates, rate (Caco-2/TC7 cells; [4]): 2.279 nmol/h | Cellular galangin conjugates, change vs no MK571 (Caco-2/TC7 cells; [4]): −28.7% | Cellular galangin conjugates, rate (Caco-2/TC7 cells; [4]): 0.004 nmol/h | Total galangin conjugates, change vs no MK571 (Caco-2/TC7 cells; [4]): −41.4% | Total galangin conjugates, rate (Caco-2/TC7 cells; [4]): 4.072 nmol/h | Decrease in galangin glucuronides (Caco-2/TC7 cells; [5]): 42.8% | Decrease in galangin sulphates (Caco-2/TC7 cells; [5]): 37.0% | Decrease in quercetin glucuronides (Caco-2/TC7 cells; [5]): 56.5% | Decrease in quercetin sulphates (Caco-2/TC7 cells; [5]): 39.6% | Apical kaempferol conjugates, change vs no MK571 (Caco-2/TC7 cells; [6]): −43.2% | Apical kaempferol conjugates, rate (Caco-2/TC7 cells; [6]): 1.196 nmol/h | Basolateral kaempferol conjugates, change vs no MK571 (Caco-2/TC7 cells; [6]): −56.7% | Basolateral kaempferol conjugates, rate (Caco-2/TC7 cells; [6]): 1.484 nmol/h | Cellular kaempferol conjugates, change vs no MK571 (Caco-2/TC7 cells; [6]): −20.0% | Cellular kaempferol conjugates, rate (Caco-2/TC7 cells; [6]): 0.004 nmol/h | Total kaempferol conjugates, change vs no MK571 (Caco-2/TC7 cells; [6]): −51.5% | Total kaempferol conjugates, rate (Caco-2/TC7 cells; [6]): 2.684 nmol/h | Apical kaempferol conjugates, change vs no MK571 (Caco-2/TC7 cells; [7]): −81.9% | Apical kaempferol conjugates, rate (Caco-2/TC7 cells; [7]): 0.382 nmol/h | Basolateral kaempferol conjugates, change vs no MK571 (Caco-2/TC7 cells; [7]): −69.0% | Basolateral kaempferol conjugates, rate (Caco-2/TC7 cells; [7]): 1.062 nmol/h | Cellular kaempferol conjugates, change vs no MK571 (Caco-2/TC7 cells; [7]): −24.2% | Cellular kaempferol conjugates, rate (Caco-2/TC7 cells; [7]): 0.003 nmol/h | Total kaempferol conjugates, change vs no MK571 (Caco-2/TC7 cells; [7]): −73.9% | Total kaempferol conjugates, rate (Caco-2/TC7 cells; [7]): 1.447 nmol/h | Apical quercetin conjugates, change vs no MK571 (Caco-2/TC7 cells; [8]): −37.1% | Apical quercetin conjugates, rate (Caco-2/TC7 cells; [8]): 0.706 nmol/h | Basolateral quercetin conjugates, change vs no MK571 (Caco-2/TC7 cells; [8]): −56.3% | Basolateral quercetin conjugates, rate (Caco-2/TC7 cells; [8]): 1.275 nmol/h | Cellular quercetin conjugates, change vs no MK571 (Caco-2/TC7 cells; [8]): −2.72% | Cellular quercetin conjugates, rate (Caco-2/TC7 cells; [8]): 0.004 nmol/h | Total quercetin conjugates, change vs no MK571 (Caco-2/TC7 cells; [8]): −50.9% | Total quercetin conjugates, rate (Caco-2/TC7 cells; [8]): 1.985 nmol/h | Ki [1]: 19.7 µM | Inhibition of chrysin glucuronide efflux (Caco-2 cells; [9]): 71% | Inhibition of chrysin sulphate efflux (Caco-2 cells; [9]): 25% | Efflux of methylated sulphate conjugates and sulphate conjugates of epigallocatechin (Caco-2 cells; 50 μM, ref [35]): substantially inhibited | Inhibition of apical efflux of epicatechin sulphate conjugates (Caco-2 cells; ref [36]): > 50% | Apigenin sulfation [2]: not inhibited | Inhibition of apigenin glucuronidation [2]: 30–40%

COc1ccc2c3c([nH]c2c1)[C@H](C=C(C)C)N1C(=O)[C@@H]2CCCN2C(=O)[C@@H]1C3 [FTC]
Total plasma quercetin and isorhamnetin concentrations (Bcrp1): twice that of controls
